In data set [1] the test system is NALM6. The data set is described as follows: Venetoclax-mediated killing, bioluminescence cytotoxicity assay, 48 hours. It is filed as cell-based. To be noted: Homo sapiens, NALM-6, read-out: half-maximal inhibitory concentration (IC50). On the procedure:
(§1) FIGS. 2A-2F illustrate the finding that venetoclax and CART19 as a single agent induces concentration- and dose-dependent tumor killing. Luciferase-expressing cancer cells (5×10^4 cells/well) were co-cultured with either various concentrations of venetoclax or different doses of CART19 for 48 hours and luminescence was used to quantify the tumor killing. After 48 hours, luciferin was added to the cells and luminescence was detected using a luminometer (Biotek Synergy H4). Tumor killing (%) was calculated using the formula: (sample−maximal tumor growth)/(lysis control−maximal tumor growth)×100. […] E:T=ratio of effector to target. EC50: Half-maximal effective concentration. CART19: anti-CD19 CAR T cell.
(§2) Cell lines (MINO, Z-138, MAVER, OCI-Ly18, SU-DHL-4, NALM6, MOLM-14 and KG-1) were engineered to express click beetle green, and cell survival was measured using bioluminescence quantification. D-luciferin potassium salt (Perkin-Elmer) was added to cell cultures (final concentration 15 μg/mL) and incubated at 37° C. for 10 minutes. Bioluminescence signal was detected using a BioTek Synergy H4 imager, and signal was analyzed using BioTek Gen5 software. Percent specific lysis was calculated using a control of target cells without effectors. Cytotoxicity assays were established as previously described (Singh, et al., Cancer Discovery 2020; 10(4):552-67) with the addition of vehicle or venetoclax.
(§3) CART19 cells were co-cultured with either vehicle (DMSO) or venetoclax and cytotoxicity was measured at 48 hours. […] This effect was further confirmed using primary NHL cells (MCL) (FIG. 1D). […] Furthermore, to confirm the importance of the BCL-2 pathway in resistance to CART killing, overexpression of BCL-2 was induced in B-cell lymphoma and leukemia cell lines (MINO, SU-DHL-4, and NALM-6) that lack genetic alterations of BCL-2. BCL-2 overexpression led to a significant reduction of tumor killing by CART cell in all models, in particular the venetoclax medium sensitive model (MINO) (FIGS. 4A-4C).

A further data set has as its system OCI-Ly18. Described as above. It is filed as cell-based. The following applies: Homo sapiens, read-out: half-maximal inhibitory concentration (IC50). On the procedure:
as §1, §2, §3

For data set [2], the system named is MINO. The description is as above. The format is cell-based. On the procedure:
as §1, §2, §3

In a further data set the test system is CART19-BCL-2(WT). Put plainly: In vitro venetoclax CART cell toxicity assay. It is filed as cell-based. The following applies: Homo sapiens; venetoclax on CART19-BCL-2(WT); long-term in vitro assay; n=3 donors; read-out: average IC50 value (CART cell survival). On the procedure:
(§4) CART cells were combined with target cancer cells at an E:T ratio of 0.25:1, and co-cultures were evaluated for absolute count of T cells and cancer cells by flow cytometry using CountBright absolute counting beads (ThermoFisher) every three days. Cultures were maintained at a concentration of 1×10^6 total cells/mL. To monitor their differentiation status, CART cells were harvested on day 0, 9, and 18. Next, CART cells were stained with anti-CCR7 and anti-CD45RA antibodies for flow cytometric analysis. CART cells were re-stimulated by PMA/Ionomycin on day 18 after initial stimulation in order to evaluate the anti-tumor activity of long-survived CART cells.
(§5) Correct expression of the transgenes in target cells was confirmed by intracellular staining for CAR19 and BCL-2 using flow cytometry (FIG. 10B). […] Additionally, venetoclax CART cell toxicity assays were performed to evaluate whether the mutant BCL-2 could provide resistance to venetoclax.

The subject of data set [3] is NALM6. The data set is described as follows: NALM6 xenograft model. The format is in vivo. To be noted: CART19 with or without venetoclax 100 mg/kg daily, oral gavage for five weeks. On the procedure:
Either venetoclax (100 mg/kg) or vehicle were administered to the mice via oral gavage daily. To monitor the survival of CART in vivo, mouse blood ([…]) was collected from submandibular vein of mouse on day 15 after CART infusion and measured the absolute number of human CD3+ T cells in mouse blood using flow cytometry. Tumor volume was monitored by measuring luminescen intensity in mouse by IVIS system. […] One-way ANOVA with post-hoc Tukey test was performed. […] All data represent mean±SD. *P<0.05. ns: not significant. UTD: untransduced T cell. CART19: anti-CD19 CAR T cell. CART19-BCL2(WT): BCL-2(WT) overexpressing anti-CD19 CAR T cell.
All data represent mean±SD.
To investigate this hypothesis, the expansion and persistence of CART19 cells in the peripheral blood of NSG mice treated with CART19 plus venetoclax or CART19 alone was analyzed using flow cytometry. […] To test whether prolonged exposure to venetoclax leads to CART cell toxicity, an in vitro venetoclax toxicity assay was performed using CART cells manufactured from 8 different T cell donors. […] In order to discern whether the reduced survival was due to increased apoptosis or reduction of proliferation, the caspase 3/7 activity in CART19 was assessed in the presence or absence of venetoclax. […]

Data set [4] deals with NALM6. Put plainly: Targeted pro-apoptotic small molecule screening with CART19 against NALM6, killing by luminescence at 48 hours. The following applies: drug 100 and 1000 nM with CART19.
Method: Killing of NALM6 cells was quantified at 48 hours by luminescence. Drug screening of pro-apoptotic small molecules was performed with two concentrations (100 and 1000 nM). […] Two concentrations of 29 drugs were used (100 nM and 1000 nM). Killing of NALM6 cells was assessed at 48 hours by luminescence. […] UTD: untransduced T cells; CART19: anti-CD19 CAR T cell; MCL: mantle cell lymphoma; E:T=ratio of effector to target; IAP: Inhibition of apoptosis protein.
CART19 and NALM6 (luciferase+) cells were seeded at a ratio of 0.08E:1T (i.e., 600 CART: 7000 NALM6) per well in 25 μl of growth medium (RPMI1640+10% FBS+1% Pen-strep+1% glutamine) of 384-well Corning 3570 microplate using a Multidrop™ Combi Reagent Dispenser (Thermo Scientific). Following cell seeding, drugs (50 nL) were transferred to assay plates using a 50 nL slotted pin tool (V&P Scientific) and a JANUS Automated Workstation (Perkin Elmer). Compounds/drugs were added to a final concentration of 1 μM in 0.2% DMSO. Columns 1 and 23 were treated with 0.2% DMSO (negative control). […] Luminescence was measured on an EnVision Xcite Multilabel Plate Reader (PerkinElmer), using the ultrasensitive luminescence measurement technology.
In order to screen pro-apoptotic small molecules that can enhance CART cell killing, a targeted screening assay was performed. […] Tumor killing was measured by luminescence at 48 hours.
The conditions of data set [5]: patient treated with venetoclax (Jones et al. 2016); cited from earlier work.
A further data set concerns CART19. The data set is described as follows: In vitro venetoclax CART cell toxicity assay. It is filed as cell-based, human. To be noted: for IC50: Homo sapiens. On the procedure:
as §4
To investigate this hypothesis, the expansion and persistence of CART19 cells in the peripheral blood of NSG mice treated with CART19 plus venetoclax or CART19 alone was analyzed using flow cytometry. […] To test whether prolonged exposure to venetoclax leads to CART cell toxicity, an in vitro venetoclax toxicity assay was performed using CART cells manufactured from 8 different T cell donors. […] Of note, the level of toxicity to CART cells varied among the different T cell donors, likely due to different apoptotic priming statuses at baseline. […] In order to discern whether the reduced survival was due to increased apoptosis or reduction of proliferation, the caspase 3/7 activity in CART19 was assessed in the presence or absence of venetoclax. […] Overall, these studies indicate that the higher doses of venetoclax required to suppress neoplasms with venetoclax resistance can cause apoptosis in CART19 cells. However, the BCL-2 pathway is a critical node for cancer resistance to CART immunotherapy and venetoclax can be toxic to CART cells. Thus, a different approach to overcome the limitation of targeting BCL-2 combined with CART immunotherapy was needed.
as §5

For data set [6], the system named is MINO. Put plainly: MINO xenograft model. The following applies: venetoclax 50 mg/Kg.
Method: For the MINO model, CART cells (5×10^4) were infused 14 days after luciferase+MINO cells were implanted (i.v. injection). […] Either vehicle or venetoclax (50 mg/kg/daily) was administrated for 5 weeks via oral gavage. […] All data represent mean±SD.
CART cells (5×10^4) were infused 14 days after luciferase+MINO cell i.v. injection. […] All data represent mean±SD. One-way ANOVA with posthoc Tukey tests was performed for all comparisons.
Six- to 10-week-old NOD SCID γ chain −/− (NSG) mice were obtained from the Stem Cell & Xenograft Core at the University of Pennsylvania and maintained in pathogen-free conditions. […] For the systemic tumor model, 1×10^6 of either NALM6 or MINO were administrated to NSG mice by tail vein injection.

Read-outs that look alike come from different tables or passages of the source.

Consider `CC1(C)CCC(CN2CCN(c3ccc(C(=O)NS(=O)(=O)c4ccc(NCC5CCOCC5)c([N+](=O)[O-])c4)c(Oc4cnc5[nH]ccc5c4)c3)CC2)=C(c2ccc(Cl)cc2)C1` [venetoclax], for which the IC50 in the data set with NALM6 [1] came to 1300 nM; with OCI-Ly18 it was 18.5 nM; in the data set on MINO [2] (Homo sapiens, MINO, 48 hours, read-out: half-maximal inhibitory concentration (IC50)) it was 68.2 nM; in the data set on CART19-BCL-2(WT) it was 998 nM; in the data set on CART19 (healthy donor-derived CAR T cell, read-out: average value of the IC50 concentration) it was 600 nM; with CART19 (venetoclax on CART19, long-term in vitro assay, n=3 donors, read-out: average IC50 value (CART cell survival)), 131 nM. The “IC50 for MINO relative to OCI-Ly18” value in the data set on MINO [2] (MINO vs OCI-Ly18) was determined as 5 fold. Moreover, the “Mice showing tumor relapse” value with NALM6 [3] amounted to 40%. For the same molecule, the “Enhancement of CART19 killing / CART cell cytotoxicity” value in the data set on NALM6 [4] is listed as “strong enhancement of CART19 killing”. Also, the “physiological concentration in a patient” value in data set [5] is reported as “around 2.3 M”. Also, in the data set with CART19 (5 days of co-culture, CART cells from 8 donors), the “Survival of CART19 cells” value is “significant reduction in the survival of CART19 cells”. Also, the “Caspase 3/7 activation in CART cells” value in the data set on CART19 (venetoclax present vs absent) is on record as “significant caspase 3/7 activation in CART cells”. In the data set with MINO [6], the “Toxicity to CART cells in vivo” value is recorded as “toxic to CART19”.

The values above are taken from patent US20240335539A1, “MODULATION OF BCL-2 TO ENHANCE CHIMERIC ANTIGEN RECEPTOR CANCER IMMUNOTHERAPY EFFICACY” (The Trustees of the University of Pennsylvania, priority 2021, published 2024).
